# Experimental data reported in patent US7618977B2, “Method of treating dermatitis comprising administering a chymase inhibitor” (Asubio Pharma Co., Ltd., priority 2000, dated 2009).
# Counter-ions that a name gives are not always drawn.
# Columns and labels:
# [1] = system: Ascaris-induced mouse biphasic dermatitis; assay: Ascaris-induced mouse biphasic dermatitis model, ear edema; format: in vivo, BALB/c mice
# Experimental: Ascaris-induced biphasic dermatitis was induced according to the method described previously (Folia Pharmacol. Jap. 112, 221, 1998). That is, 8-week old BALB/c mice (Charles River Japan) were sensitized by intraperitoneal injection of 0.5 ml of a 1:1 mixture of ascaris extract (800 μg/ml, Cosmo Bio Co., Ltd.) and an alum saline suspension (16 mg/ml in saline). Two weeks after the sensitization, 10 μl of ascaris extract (1 mg/ml) was injected intradermally to the right ear of mice. The edema induced at the ear were evaluated immediately before intradermal injection of the ascaris extract (n=3) and 1 hour after (n=4), 2 hours after (n=4), 4 hours after (n=4), 6 hours after (n=4), 16 hours after (n=4), and 24 hours after injection (n=4), by weighing ear biopsy prepared with a punch (a diameter of 6 mm, Fukui Kiko Shokai) and measuring their weights. The edema (mg) was expressed as the difference in the weight of the ear punch biopsy between the right and the left ears of the same mouse. Dermatitis was induced in accordance with the method described in Example 2 and the ear edema was measured in the same way as in Example 2, 1 hour (n=6) and 16 hours (n=8) after the intradermal administration of ascaris extract to the ears to investigate the effects of the test substance on dermatitis. As the chymase inhibitor, Compound 34 was used. As the control drug, diphenhydrazine (antihistamine, Sigma) and prednisolone (steroid, Nakarai Tesc Co.) were used. Each drug under study was suspended in saline containing 0.5% hydroxypropyl cellulose and administered intraperiotoneally 60 minutes before intradermal administration of ascaris extract. A group of mice sensitized with ascaris extract and challenged by intradermal injection of saline was used as a control (n=3).
# [2] = system: dermatitis induced by repeated application of hapten; assay: Mouse dermatitis model induced by repeated application of hapten (DNFB), ear thickness; format: in vivo, C3H/HeN mice; conditions: for suppression of increase in ear thickness (skin reaction after hapten application): five days a week
# Experimental: Dermatitis was induced in accordance with an already reported method (J. Pharmacol. Exp. Ther. 283, 321, 1997) using dinitrofluorobenzene (DNFB) as hapten. That is, the right ears of eight-week old female C3H/HeN mice (Nippon Clare) (n=7) were painted with 0.15% DNFB (25 μl) dissolved in an acetone/olive oil (3:1) every seven days six times. When applying the hapten each time, the ear thickness was measured by a micrometer (Digimatic Indicator, Mitsutoyo Co.) immediately before the application and 1 hour, 6 hours, 24 hours, and 48 hours after the application so as to find the amount of increase from the ear thickness before the first application of hapten. Further, a group similarly treated with an acetone/olive oil solution (3:1) not containing DNFB was used as a control. Further, in a test separate from the above, the ears were cut off immediately before the third application of hapten, the chymase-like activity of the skin was measured in accordance with an already reported method (n=3), and this was compared with the activity of mice treated with an acetone/olive oil solution (3:1) not containing DNFB (n=2).
# The effect of a test substance on dermatitis was investigated by inducing dermatitis in accordance with the method described in Example 9 (n=7) and measuring the ear thickness in the same way as in Example 9. As the test substance, three chymase inhibitors (Compound 18, Compound 34, and Compound 35) were used, while as the control, the steroid prednisolone (Nakarai Tesc Inc.) was used. Further, the test substance was suspended in saline containing 0.5% hydroxypropyl cellulose in the same way as in Example 3 (HPC/saline) and intraperitoneally administered in dosages of 10 mg/kg or 50 mg/kg once a day for five consecutive days a week until the end of the test; the first administration was performed immediately before the start of the hapten application. Further, a group similarly treated with DNFB and administered HPC/saline instead of the test substance was used as a control group.
# natural onset dermatitis = assay: Natural onset dermatitis (NC/Nga) mice; format: in vivo; conditions: 150 mg/kg/day in drinking water, 35 days
# Excerpt: NC/Nga mice were bred and raised in accordance with the methods described in previous reports (Progress in Medicine 19, 1201, 1999). Specifically, 5-week old NC/Nga mice obtained from Charles River Japan and raised under a specific pathogen free (SPF) environment were mixed with NC/Nga mice bred by the Faculty of Applied Biological Science of Hiroshima University starting from 6 weeks of age, kept until 15 weeks of age in a normal non-SPF environment, then used for the tests. The tests were conducted under non-SPF, conventional environment. The test substance (Compound 18) was mixed with the drinking water and administered for 35 consecutive days at 150 mg/kg/day (n=7), then an evaluation was conducted in accordance with the method described in previous reports (Progress in Medicine 19, 1201, 1999). That is, first, 35 days after the start of administration, the five items of (1) scratching behavior, (2) edema, (3) erythema and hemorrhaging, (4) depilation and ulceration, and (5) dryness were scored as 0 to 2 and the total found to judge the outer appearance of the skin. Next, the ears and skin of the back were fixed with formalin, embedded in paraffin, and histologically analyzed by staining the ear specimens by the hematoxylin and Eosin method, Toluidine Blue method, or Congo Red method (Stain Technol. 56, 323, 1981) and by staining the back skin specimens by the Toluidine Blue method or Congo Red method. Sections of the ear stained with Hematoxylin and Eosin were evaluated by judging the change in tissue in four scales of 0 to 3 for three items of (1) thickness of epidermis, (2) thickness of dermis, and (3) cellular infiltration and expressing as the total score. Further, the specimens stained with Toluidine Blue and stained with Congo Red were used for counting the mast cells and eosinophils. Specifically, the eosinophils of the back skin were counted in a ×400 field of a microscope, while the other cells were counted in a total of five ×200 fields and the totals expressed.
# [3] = system: human polymorphonuclear leukocytes (PMN); assay: Human chymase-induced migration of polymorphonuclear leukocytes, 48-well chemotaxis chamber; format: cell-based; conditions: inhibitor in lower well, 1% dimethyl sulfoxide, 37° C. 1 hour
# Experimental: In Example 6, it was shown that a remarkable infiltration of leukocytes is observed in late-phase reaction of human chymase-induced dermatitis. The effect of human chymase on the migration of polymorphonuclear leukocytes (PMN) in vitro was investigated for the purpose of investigating the mechanism of chymase-induced leukocyte infiltration. PMN was isolated by adding a ⅕th volume of 6% dextran solution to heparinized whole blood from normal healthy subject and allowing it to stand at 37° C. for 1 hour, then layering the supernatent on Ficoll-Paque (Amersham Pharmacia Biotech) and centrifuging it. Further, the migration of PMN was measured by using a 48-well chemotaxis chamber (NeuroProbe Co.) by the textbook method (Seibutsu Yakkagaku Jikken Koza (Biopharmacology Experiment Lectures) 12, 315, Hirokawa Shoten). That is, a medium containing human chymase (200 to 800 nM) or fMLP (N-formyl-L-methionyl-L-leucyl-L-phenylalanine, Sigma-Aldrich Co.) (10 nM) was placed in the lower well of the chamber. The upper well and the lower well were separated by a polycarbonate filter (pore size 5 μm) (NeuroProbe Co.) PMN (1×10^6/ml) was added to the upper well and cultured at 37° C. for 1 hour, then the filter was fixed, stained and the number of cells in the membrane were counted under a microscope (400×) (Seibutsu Yakkagaku Jikken Koza (Biopharmacology Experiment Lectures) 12, 315). For the cell staining, a hemacolor solution (Merck) was used. In this test, when investigating the effect of the chymase inhibitor, a chymase inhibitor (Compound 18 or Compound 34) was dissolved in dimethyl sulfoxide and added to the lower well of the chamber just before the addition of the human chymase. The concentration of the compound was adjusted so that the final concentration of the dimethyl sulfoxide became 1%.
# eosinophils of the skin = assay: Increase in eosinophils of skin in hapten-induced mouse dermatitis model; format: in vivo, C3H/HeN mice; conditions: 48 hours after sixth application of hapten
# Experimental: The effect of a chymase inhibitor on the infiltration of eosinophils of the skin in the test of Example 10 was studied. That is, 48 hours after the sixth application of hapten, the ears of the mice were fixed with formalin and paraffin sections prepared in accordance with an ordinary method. The sections were stained with Fast Green (Fluka), known to specifically stain eosinophils (Current Protocol in Immunology, Wiley Interscience). That is, the deparaffined sections were fixed with 100% methanol for 1 minute, then stained for 30 minutes by 0.2% Fast Green dissolved in 70% ethanol. The eosinophils were measured by randomly selecting 10 fields (×400) under a microscope and counting the number of cells per area using an ocular grid. As the chymase inhibitor, the Compound 18 and Compound 34 were used and =administered by the method described in Example 10. Further, a group treated with an acetone/olive oil solution (3:1) not containing DNFB was used as the non-induced control group, while a group treated with DNFB and administered HPC/saline instead of the test substance was used as the control for the group administered the chymase inhibitor.
# mast cells of skin = assay: Increase in number of mast cells of skin in hapten-induced mouse dermatitis model; format: in vivo, C3H/HeN mice; conditions: 48 hours after sixth application of hapten
# Experimental: The effect of a chymase inhibitor on the increase in mast cells of skin in the test of Example 10 was studied. In the same way as Example 11, the ears of the mice were fixed with formalin and paraffin sections prepared by an ordinary method 48 hours after the sixth application of hapten. The mast cells of the sections were stained by the Toluidine Blue method, then the number of mast cells were counted under a microscope (×400) for 10 fields per section. The density of mast cells of the skin was measured in accordance with the method of Kitagaki et al. (J. Invest. Dermatol. 105, 749, 1995). As the chymase inhibitor, use was made of Compound 18 and Compound 34. These were administered by the method described in Example 10. Further, a group treated with an acetone/olive oil solution (3:1) not containing DNFB was used as the non-induced control group, while a group treated with DNFB and administered HPC/saline instead of the test substance was used as the control for the group administered the chymase inhibitor.
# [4] = 50 mg/kg intraperitoneal once a day, p<0.05 Dunnett's test
# [5] = 10 mg/kg intraperitoneal once a day
# [6] = 50 mg/kg intraperitoneal, 60 minutes before ascaris extract, p<0.01
smiles,measurement,setting,value
CN(C)CCOC(c1ccccc1)c1ccccc1 [diphenhydrazine],"rate of suppression, early-phase reaction","[1]; control drug, intraperitoneal, dose not given, 1 hour after challenge",79%
same,effect against the late-phase reaction,"[1]; control drug, intraperitoneal, dose not given, 16 hours after challenge",almost no effect
"Cl.O=c1[nH]c2cc(Cl)ccc2c(=O)n1S(=O)(=O)c1ccc(-c2cc[nH]n2)cc1 [Compound 35, 7-chloro-3-[4-(pyrazol-3-yl)benzenesulfonyl]-2,4(1H,3H)-quinazolinedione Hydrochloride]",suppression of increase in ear thickness (skin reaction after hapten application),[2]; [4],significantly suppressed
"Nc1cc(S(=O)(=O)n2c(=O)[nH]c3cc(Cl)ccc3c2=O)ccc1C(=O)O [Compound 18, 4-[(7-chloro-2.4 (1H,3H)-quinazolinedion-3-yl)sulfonyl]anthranilic Acid Monosodium Salt]",number of mast cells of ear skin and back skin,natural onset dermatitis,significant suppressive effect
same,numbers of eosinophils of ear skin and back skin,natural onset dermatitis,significantly suppressed
same,histological score of the ears,natural onset dermatitis; p<0.05 Mann-Whitney,decreased significantly
same,dermatitis score (clinical skin score),"natural onset dermatitis; vs control group, p<0.05 Mann-Whitney",decreased significantly
same,suppression of human chymase-promoted migration of human PMN,[3],significantly suppressed
same,suppression of increase in ear thickness (skin reaction after hapten application),[2]; [5],significant effect
same,suppression of increase in ear thickness (skin reaction after hapten application),[2]; [4],significantly suppressed
same,rate of suppression of increase in eosinophils,eosinophils of the skin; 10 mg/kg intraperitoneal,37.1%
same,rate of suppression of increase in eosinophils,eosinophils of the skin; 50 mg/kg intraperitoneal,60.5%
same,rate of suppression of increase in density of mast cells,mast cells of skin; 10 mg/kg intraperitoneal,about 57%
same,rate of suppression of increase in density of mast cells,mast cells of skin; 50 mg/kg intraperitoneal,about 64%
"C[C@]12C=CC(=O)C=C1CC[C@@H]1[C@@H]2[C@@H](O)C[C@@]2(C)[C@H]1CC[C@]2(O)C(=O)CO [Prednisolone, prednisolone]","rate of suppression, late-phase reaction","[1]; 30 mg/kg intraperitoneal, 16 hours after challenge",67%
same,effect against the early-phase reaction,"[1]; control drug, intraperitoneal, 1 hour after challenge",substantially ineffective
same,suppression of dermatitis (ear thickness),"[2]; control drug, 10 mg/kg or 50 mg/kg intraperitoneal",suppressed dermatitis in this model in a dose-dependent manner
"CS(=O)(=O)O.Nc1cccc(S(=O)(=O)n2c(=O)[nH]c3cc(Cl)ccc3c2=O)c1 [Compound 34, 3-(3-aminobenzenesulfonyl)-7-chloro-2,4-(1H,3H)quinazolinedion Methanesulfonic Acid Salt]","rate of suppression, early-phase reaction (ear edema after 1 hour)",[1]; [6],about 41%
same,"rate of suppression, late-phase reaction (ear edema after 16 hours)",[1]; [6],about 45%
same,suppression of human chymase-promoted migration of human PMN,[3],significantly suppressed
same,suppression of increase in ear thickness (skin reaction after hapten application),[2]; [5],significant suppressive effect
same,suppression of increase in ear thickness (skin reaction after hapten application),[2]; [4],significantly suppressed
same,effect on increase in eosinophils,eosinophils of the skin; 10 and 50 mg/kg intraperitoneal,no statistically significant difference
same,rate of suppression of increase in density of mast cells,mast cells of skin; 10 mg/kg intraperitoneal,about 37%
same,rate of suppression of increase in density of mast cells,mast cells of skin; 50 mg/kg intraperitoneal,about 51%
